Results on 2 compounds are retold here after patent publication US9301529B2, “Polysubstituted pyridyl pyrazolecarboxamide and preparation method and use thereof” (ZHAOQING ZHENGE BIOLOGICAL TECHNOLOGY CO., LTD, priority 2014, dated 2016).

One data set has as its system Helicoverpa armigera. Nature of the data set: Determination of activity against Helicoverpa armigera, leaf dipping method (IRAC). It counts as in vivo. The conditions noted are these: for insecticidal activity (mortality): leaf dipping, Brassica oleracea leaf, 72 hour. From the text: Determination of Activity Against Helicoverpa armigera
Leaf dipping method (proposed by Insecticide Resistance Action Committee, IRAC) was adopted: a leaf of Brassica oleracea was clamped by a tweezer and dipped into an insecticide solution having a certain concentration to be tested for 3 to 5 seconds, the excessive solution was threw off, one leaf at each time, three leaves for each sample. The leaves were placed onto a treatment paper according to sequence of sample marking and air-dried naturally, then put into a marked straight tube of 10 cm length, […] in, the tube opening was covered by a gauze, and placed into a standard treatment chamber, the result was checked and the mortality was calculated at 72 hour.
(§1) Some of the compounds in Example 1 were used to conduct the test, and a control compound was selected to conduct an indoor insecticidal activity data (%, concentration unit: ppm) determination test under the same condition, the results of the test was shown in Table 2.

Another data set deals with Ostrinia furnacalis. As to the kind of experiment: Determination of activity against Ostrinia furnacalis, leaf dipping method. In kind it is in vivo. The note with it: for insecticidal activity (mortality): leaf dipping, Brassica oleracea leaf, 72 hours.
Source text: Determination of Activity Against Ostrinia furnacalis
Leaf dipping method was adopted, a leaf of Brassica oleracea was clamped by a tweezer, and dipped in insecticide solution having a certain concentration for 3 to 5 seconds, the excessive solution was threw off, one leaf at each time, and three leaves for each sample. The leaves were placed onto a treatment paper according to the sequence of sample marking and air-dried naturally, then put into a marked straight tube of 10 cm length, and 30 Ostrinia furnacalis larvae being […] were place in, the tube opening was covered by a gauze, and placed in a standard treatment chamber, the result was checked and the mortality was calculated at 72 hours.
as §1

The mark [1] stands for this setting: Helicoverpa armigera, in Brassica oleracea, foliar, 72 h, read-out: insecticidal activity (mortality).
Setting [2] is: Ostrinia furnacalis, in Brassica oleracea, foliar, 72 h, read-out: insecticidal activity (mortality).

SMILES strings stand for the structures.

Consider `CNC(=O)c1cc(Cl)cc(C)c1NC(=O)c1cc(Br)nn1-c1ncccc1Cl` [KC], for which, in the data set with Helicoverpa armigera (setting [1]), the mortality at 0.016 ppm amounted to 0%, the mortality at 0.031 ppm was found to be 0%, the mortality at 0.0625 ppm turned out to be 30% and the mortality at 0.125 ppm came to 55%. In the data set with Helicoverpa armigera (setting [1]), the mortality at 0.25 ppm came out at 70% and the mortality at 0.5 ppm came to 85%. Also, in the data set on Ostrinia furnacalis (setting [2]), the mortality at 0.016 ppm was 0%, the mortality at 0.031 ppm amounted to 30%, the mortality at 0.0625 ppm was 55% and the mortality at 0.125 ppm was determined as 75%. In the data set with Ostrinia furnacalis (setting [2]), the mortality at 0.25 ppm was 100% and the mortality at 0.5 ppm turned out to be 100%.

As to `CC(C)(C)NC(=O)c1cc(Cl)cc(Cl)c1NC(=O)c1cc(Br)nn1-c1ncccc1Cl` [Compound I-24, 1-(3-chloropyridine-2-yl)-3-bromo-N-(2,4-dichloro-6-tert-butylaminocarbonyl)phenyl-1H-pyrazole-5-formamide], the “insecticidal activity (mortality)” value turned out to be 60% in the data set on Helicoverpa armigera (0.016 ppm); 80% with Helicoverpa armigera (0.031 ppm); 100% with Helicoverpa armigera (0.0625 ppm); 100% in the data set on Helicoverpa armigera (0.125 ppm); 100% in the data set on Helicoverpa armigera (0.25 ppm); 100% in the data set on Helicoverpa armigera (0.5 ppm). Moreover, the “insecticidal activity (mortality)” value with Ostrinia furnacalis (0.031 ppm), with Ostrinia furnacalis (0.0625 ppm), with Ostrinia furnacalis (0.125 ppm), with Ostrinia furnacalis (0.25 ppm) and in the data set with Ostrinia furnacalis (0.5 ppm) was 100% in each case.
